# Test system: mouse melanoma B-16 cells
# Test: Inhibitory effect on melanin synthesis
# Assay type: cell-based
# Method: In order to confirm the inhibition effect of the compounds prepared in Examples 1 to 31 and hydroquinone on melanin biosynthesis, the experiment was performed with the procedure described in the literature (Lotan R., Lotan D. Cancer Res., 40, pp. 3345-3350, 1980).
# […] The medium was cultured for 3 days and the cultured cells were separated from the medium by treating with trypsin. The separated cells were centrifuged and the melanin was extracted therefrom. The extract was treated with 1 ml of sodium hydroxide solution (1N) and boiled for 10 mins to resolve the melanin. Optical density (OD) value was measured 3 times at 475 nm by a spectrophotometer and the amount of melanin was expressed by absorbance(OD)/1×10^6 cells. The inhibitory effect of melanin (%) was calculated from the melanin synthesis as compared with the control group.
# [1] = Mus musculus, B16, 72 h, concentration 5 ug/ml, B-16 cells cultured 3 days, vs control group
# [2] = Mus musculus, B16, 72 h, concentration 20 ug/ml, B-16 cells cultured 3 days, vs control group
# [3] = concentration 5 ug/ml, B-16 cells cultured 3 days, vs control group
# [4] = concentration 20 ug/ml, B-16 cells cultured 3 days, vs control group
# [5] = mouse B-16 melanoma cells, statement in words
Molecule,inhibition at 5 µg/mL [1],inhibition at 20 µg/mL [2],also measured
"CC(C)=CC(=O)Oc1cc2ccccc2cc1OC(=O)C=C(C)C [Example 18, 3-methyl-2-butenoic acid 3-(3-methyl-2-butenoyloxy)-naphthalen-2-yl ester]",47%,67%,–
"CCCCC(=O)O[C@@H]1CCCC[C@H]1OC(=O)CCCC (relative stereo) [Example 2, pentanoic acid 2-pentanoyloxy-trans-cyclohexyl ester]",45%,78%,–
"CC(C)=CC(=O)O[C@@H]1CCCC[C@H]1OC(=O)C=C(C)C (relative stereo) [Example 3, 3-methyl-2-butenoic acid 2-(3-methyl-2-butenoyloxy)-trans-cyclohexyl ester]",39%,72%,–
"CCCCC(CC)C(=O)O[C@@H]1CCCC[C@H]1OC(=O)C(CC)CCCC (relative stereo) [Example 7, 2-ethyl-hexanoic acid 2-(2-ethyl-hexanoyloxy)-trans-cyclohexyl ester]",42%,69%,–
"CCCCCC(=O)O[C@@H]1CCCC[C@H]1OC(=O)CCCCC (relative stereo) [Example 4, hexanoic acid 2-hexanoyloxy-trans-cyclohexyl ester]",41%,71%,–
"CCCC(=O)O[C@@H]1CCCC[C@H]1OC(=O)CCC (relative stereo) [Example 1, butyric acid 2-butyryloxy-trans-cyclohexyl ester]",30%,55%,–
"CCCCCCCCC(=O)O[C@@H]1CCCC[C@H]1OC(=O)CCCCCCCC (relative stereo) [Example 8, nonanoic acid 2-nonanoyloxy-trans-cyclohexyl ester]",21%,47%,–
"CC(C)=CC(=O)O[C@H]1CCCC[C@H]1OC(=O)C=C(C)C [Example 11, 3-methyl-2-butenoic acid 2-(3-methyl-2-butenoyloxy)-cis-cyclohexyl ester]",31%,54%,–
"CC(C)CCOC1CCCCC1OCCC(C)C (stereo not drawn) [Example 28, 1,2-bis-(3-methyl-buthoxy)-cyclohexane]",–,–,Melanin synthesis inhibition (%) [3]: 25%; Melanin synthesis inhibition (%) [4]: 49%
"CCCC(=O)OC1C(OC(=O)CCC)C(OC(=O)CCC)C(OC(=O)CCC)C(OC(=O)CCC)C1OC(=O)CCC (stereo not drawn) [Example 25, myo-inositol hexa-O-butanoate]",–,–,Melanin synthesis inhibition (%) [3]: 27%; Melanin synthesis inhibition (%) [4]: 59%
"CC(C)=CC(=O)O[C@@H]1CCC[C@H]1OC(=O)C=C(C)C (relative stereo) [Example 12, 3-methyl-2-butenoic acid 2-(3-methyl-2-butenoyloxy)-trans-cyclopentyl ester]",27%,56%,–
CC(C)=CC(=O)OC1OC[C@@H](OC(=O)C=C(C)C)[C@@H](OC(=O)C=C(C)C)[C@@H]1OC(=O)C=C(C)C (stereo partly drawn) [Example 26],–,–,Melanin synthesis inhibition (%) [3]: 31%; Melanin synthesis inhibition (%) [4]: 61%
"CCCCC(CC)C(=O)Oc1cc2ccccc2cc1OC(=O)C(CC)CCCC (stereo not drawn) [Example 20, 2-ethyl-hexanoic acid 3-(2-ethyl-hexanoyloxy)-naphthalen-2-yl ester]",29%,55%,–
"CCCCCCOC1CCCCC1OCCCCCC (stereo not drawn) [Example 30, 1,2-bis-hexyloxy-cyclohexane]",18%,41%,–
"CCCCCCCC(=O)Oc1ccccc1OC(=O)CCCCCCC [Example 17, octanoic acid 2-octanoyloxy-phenyl ester]",9%,18%,–
"CCCCCCCC(=O)Oc1cc2ccccc2cc1OC(=O)CCCCCCC [Example 19, octanoic acid 3-octanoyloxy-naphthalen-2-yl ester]",39%,61%,–

Molecule,inhibition at 5 µg/mL [1],inhibition at 20 µg/mL [2],also measured
"CC(C)=CC(=O)Oc1ccccc1OC(=O)C=C(C)C [Example 16, 3-methyl-2-butenoic acid 2-(3-methyl-2-butenoyloxy)-phenyl ester]",15%,27%,–
"CC(C)=CC(=O)OC1COCC1OC(=O)C=C(C)C (stereo not drawn) [Example 22, 3-methyl-2-butenoic acid 4-(3-methyl-2-butenoyloxy)-tetrahydrofuran-3-yl ester]",27%,49%,–
"CCCCCCCC(=O)O[C@@H]1CCCC[C@H]1OC(=O)CCCCCCC (relative stereo) [Example 6, octanoic acid 2-octanoyloxy-trans-cyclohexyl ester]",30%,51%,–
"CCCCCCCC(=O)O[C@@H]1CCC[C@H]1OC(=O)CCCCCCC (relative stereo) [Example 13, octanoic acid 2-octanoyloxy-trans-cyclopentyl ester]",30%,54%,–
"CCCCC(CC)C(=O)O[C@@H]1CCC[C@H]1OC(=O)C(CC)CCCC (relative stereo) [Example 14, 2-ethyl-hexanoic acid 2-(2-ethyl-hexanoyloxy)-trans-cyclopentyl ester]",31%,57%,–
"CCCCCCCC(=O)OC1CCCC(OC(=O)CCCCCCC)C1OC(=O)CCCCCCC (stereo not drawn) [Example 24, octanoic acid 2,3-bis-octanoyloxy-cyclohexyl ester]",39%,69%,–
"CCCC(=O)OC[C@H]1O[C@H](OC)[C@H](OC(=O)CCC)[C@@H](OC(=O)CCC)[C@@H]1OC(=O)CCC [Example 27, methyl-alpha-D-glucose tetra-O-butanoate]",–,–,Melanin synthesis inhibition (%) [3]: 29%; Melanin synthesis inhibition (%) [4]: 49%
"CCCCCCCCCC(=O)O[C@@H]1CCCC[C@H]1OC(=O)CCCCCCCCC (relative stereo) [Example 9, decanoic acid 2-decanoyloxy-trans-cyclohexyl ester]",19%,39%,–
"CCCCCCCC(=O)Oc1cccnc1OC(=O)CCCCCCC [Example 21, octanoic acid 3-octanoyloxy-pyridin-2-yl ester]",48%,81%,–
"CCCCCCCCCCCC(=O)O[C@@H]1CCCC[C@H]1OC(=O)CCCCCCCCCCC (relative stereo) [Example 10, lauric acid 2-lauroyloxy-trans-cyclohexyl ester]",9%,15%,–
"CCCCCOC1CCCCC1OCCCCC (stereo not drawn) [Example 29, 1,2-bis-pentyloxy-cyclohexane]",22%,43%,–
"butyric acid 3-methyl-2-butenoic acid 2,3-bis-(3-methyl-2-butenoyloxy)-phenyl ester [Example 23]",–,–,Melanin synthesis inhibition (%) [3]: 48%; Melanin synthesis inhibition (%) [4]: 75%
"Oc1ccc(O)cc1 [Hydroquinone, reference compound]",–,–,"inhibition at 1 µg/mL (Mus musculus, B16, 72 h, concentration 1 ug/ml, B-16 cells cultured 3 days, vs control group): 45%; Melanin synthesis inhibition (%) [3]: Cell death; cytotoxicity [5]: high levels of cytotoxicity; inhibitory activity of melanin synthesis [5]: potent inhibitory activity at low concentration"
"C=CCCC(=O)O[C@@H]1CCCC[C@H]1OC(=O)CCC=C (relative stereo) [Example 15, 4-pentenoic acid 2-(4-pentenoyloxy)-trans-cyclohexyl ester]",39%,72%,–
"CCCCCCCCOC1CCCCC1OCCCCCCCC (stereo not drawn) [Example 31, 1,2-bis-octyloxy-cyclohexane]",15%,31%,–
"CCCCCCC(=O)O[C@@H]1CCCC[C@H]1OC(=O)CCCCCC (relative stereo) [Example 5, heptanoic acid 2-heptanoyloxy-trans-cyclohexyl ester]",35%,56%,–
